Data from patent US5238689A, “Use of ruthenium red as immunosuppressive agents” (Procept, Inc., priority 1992, dated 1993).
Several values for one entry are separate records, joined by “and”; a condition that tells them apart may be missing. Identical values can stand only once. Like-named read-outs stand apart in the source and are kept apart here.

Key:
[1] = test system: specific antibody to cytochrome c
Experimental: The remaining mice in this study continued on their assigned treatment and were bled on day 23, as in the original pilot study, and sera were tested for specific antibodies in the ELISA. The data has been expressed as the mean of the endpoint dilution.

[2] = test system: smooth muscle plasma membrane of pig stomach cells; conditions: cited from earlier work
[3] = test system: T cell responses to cytochrome c
Experimental: For these studies, B10.A mice were treated with Ruthenium RED as before and immunized with cytochrome c. On day 7 after challenge with antigen, draining lymph nodes were removed and single cell suspensions of lymphocytes were prepared. The lymphocytes were counted to estimate overall yields and were cultured in vitro with antigen (100 μg/ml) for three days prior to addition of tritiated thymidine to quantitate proliferation.

Lewis lung carcinoma = conditions: mice treated with the dye; cited from earlier work
[4] = test system: mitochondria of rat liver cells; conditions: cited from earlier work
T cells = conditions: mean of 4 determinations
Experimental: Alloreactivity was measured by stimulating T cells from one donor with inactivated lymphocytes from a second donor. The inhibition values represent the means of 4 separate determinations.

[5] = test system: human T cell (PBL) proliferation; conditions: for % Inhibition: mean of 5 separate experiments
[6] = test system: specific antibodies to cytochrome c; conditions: 4 mg/kg i.p. daily, 2 days before and 12 days after immunization; day 23
[7] = test system: T cells activated with HSV-1; conditions: 1 μg/ml
Experimental: In another study, T cells were activated with HSV-1 as described before and the Ruthenium Red (1 μg/ml) was added either at the start of culture (time 0) or after various delays.

[8] = test system: transfected Jurkat T cells; experiment: Calcium influx into activated human T cells (Fluo-3AM); format: cell-based
Experimental: To uncover the mode of action of Ruthenium Red, additional experiments were performed. Because it is known that this compound effects Ca^2+ levels in cells, we examined whether Ruthenium Red prevents the rise in intracellular Ca^2+ that accompanies T cell activation. The Ca^2+ -sensitive dye, Fluo-3AM (Molecular Probes, Inc., Eugene, Oreg.), can be used to detect intracellular Ca^2+. For these studies, transfected Jurkat T cells were incubated with Fluo-3AM (1 μM) for one hour at room temperature. The cells were then washed three times and incubated in 1 ml. volumes (5×10^5 cells) with various agents to trigger T cell activation and thus Ca^2+ uptake. Ruthenium Red was added at a concentration of 1 μg/ml (1.27 μM).

[9] = test system: human peripheral blood lymphocytes (PBL's); conditions: for 3H-thymidine uptake / % Inhibition: Ruthenium Red 0.2 μg/ml, 3 days
Experimental: For these studies, human peripheral blood lymphocytes (PBL's) were incubated in vitro with varying concentrations of IL-2 and in the presence or absence of Ruthenium Red (0.2 μg/ml). After 3 days of culture, ^3 H-thymidine was added for 16 hr, cells were harvested, and the filters counted.

N.N.N.N.N.N.N.N.N.N.N.N.N.N.[Cl-].[Cl-].[Cl-].[Cl-].[Cl-].[Cl-].[O-2].[O-2].[Ru+3].[Ru+3].[Ru+4] [Ruthenium Red]
High Responders ([1]; antibody titer greater than 1:5,120, day 23): 2/6 | mice with titers greater than 1:5000 ([1]; day 23): 2 of the 6 | Mean Titer ([1]; mean of the endpoint dilution, day 23): 18,613 ± 13,020 | fraction of mice with a greatly reduced response to antigen ([1]; pilot study, proliferative data and antibody titers together): two thirds | Ca2+ efflux [2]: inhibit Ca^2+ efflux | effect on calcium ion transport ([2]; smooth muscle plasma membrane of pig stomach cells): affect calcium ion transport | Cell Yield (draining lymph nodes) ([3]; mouse 14, day 7): 0.26 × 10^6 | Cell Yield (draining lymph nodes) ([3]; mouse 16, day 7): 0.81 × 10^6 | Cell Yield (draining lymph nodes) ([3]; mouse 17, day 7): 16 × 10^6 | Specific proliferation ([3]; mouse 17, day 7, antigen 100 μg/ml, three days in vitro): 22,236 cpm | response to cytochrome c ([3]; third mouse): responded normally to cytochrome c | enlargement of lymph nodes following immunization ([3]; two of the three mice): no enlargement of lymph nodes following immunization | anti-tumor properties, growth of Lewis lung carcinoma (Lewis lung carcinoma): growth inhibition of Lewis lung carcinoma in mice | effect on calcium ion transport [4]: affect calcium ion transport | % Inhibition of alloreactivity (T cells; 0.1 μg/ml (0.13 μM)): 69% | % Inhibition of alloreactivity (T cells; 0.2 μg/ml (0.25 μM)): 77% | % Inhibition of alloreactivity (T cells; 1.0 μg/ml (1.27 μM)): 85% | % Inhibition of alloreactivity (T cells; 2.5 μg/ml (3.18 μM)): 92% | % Inhibition ([5]; 0.01 μg/ml (0.01 μM)): 17% | % Inhibition ([5]; 0.1 μg/ml (0.13 μM)): 31% | % Inhibition ([5]; 0.2 μg/ml (0.25 μM)): 60% | % Inhibition ([5]; 1.0 μg/ml (1.27 μM)): 89% | % Inhibition ([5]; 2.5 μg/ml (3.18 μM), 3.18 µM): ~90% and 96% | IC50 ([5]; read-out: IC50, inhibition of T cell proliferation, antigen-stimulated human PBL): ~200 nM | reduction in antibody levels compared to control mice who received water [6]: 70% | latest time of addition after triggering with antigen still producing maximal inhibition [7]: ≤ 20 h | % Inhibition ([7]; time of addition 0 hr): 95% | % Inhibition ([7]; time of addition 1 hr): 97% | % Inhibition ([7]; time of addition 2 hr): 96% | % Inhibition ([7]; time of addition 4 hr): 92% | % Inhibition ([7]; time of addition 20 hr): 86% | % Inhibition ([7]; time of addition 33 hr): 58% | percentage of cells staining positively with the dye (intracellular Ca2+) ([8]; 1 μg/ml (1.27 μM)): major reduction in the percentage of cells staining positively with the dye | % Fluorescent cells ([8]; Activation (anti-CD2), Ruthenium Red 1 μg/ml (1.27 μM)): 17.2% | 3H-thymidine uptake ([9]; IL-2 0.01 U/ml): 1,154 cpm | % Inhibition ([9]; IL-2 0.01 U/ml): 80% | 3H-thymidine uptake ([9]; IL-2 1 U/ml): 2,805 cpm | % Inhibition ([9]; IL-2 1 U/ml): 92% | 3H-thymidine uptake ([9]; IL-2 100 U/ml): 3,839 cpm | % Inhibition ([9]; IL-2 100 U/ml): 88% | proliferative response induced by IL-2 alone ([9]; PBL's): can be inhibited by this compound

CNc1ccc2oc(C[C@H]3O[C@@]4(CC[C@H]3C)O[C@H]([C@H](C)C(=O)c3ccc[nH]3)[C@H](C)C[C@H]4C)nc2c1C(=O)O [Calcium ionophore, reference compound]
% Fluorescent cells ([8]; Calcium ionophore, without Ruthenium Red): 84.6%
